This is an account of results in patent US7758856B2, “Bacteriophage for the treatment of bacterial biofilms” (Biocontrol Limited, priority 2003, dated 2010).

For data set [1] the following is noted: CF patients, nebulisation twice a day (tobramycin 80 mg; Colistin 2 mega units); cited from earlier work.
A further data set concerns Ps. aeruginosa. The experiment in a line: Minimal inhibition concentration of tobramycin. The data set is classed as cell-based. Conditions: Pseudomonas aeruginosa.
Data set [2] deals with Ps. aeruginosa GH56 biofilms. The experiment in a line: In vitro biofilm model (chemostat and Robbins device, viable counts on PVC disks).
Procedure: Each port allows insertion of a sampling stud that contains a polyvinyl chloride (PVC) disk that lies flush to the upper surface of the lumen. The continuous culture is pumped through the Robbins device and biofilms are formed on the surface of PVC disks exposed to the culture.
A 10-ml aliquot of an 18 hour culture of Pseudomonas aeruginosa, at approximately 10^8 cfu per ml, was used to inoculate the sterile growth media within the chemostat. The inocula was introduced into the chemostat through the sample port in the top plate. • ii. Following inoculation, the chemostat was operated as a batch culture for 4 h to allow establishment of the culture. • iii. Medium addition (½ strength nutrient broth, Oxoid) was commenced at the desired flow rate (1 ml per min) and the effluent pump was activated. The flow rate of the effluent pump was the same as the inflow pump. The effluent tubing bypassed the Robbins devices leading straight to the main waste reservoir. • iv. The continuous chemostat was run for a predetermined time until a steady state was attained (96-hours). At this stage, the tubes leading to the Robbins devices were positioned onto the multi-head pump, thus instigating culture flow through the Robbins devices. • v. […] The medium, effluent and culture volumes were recorded on the run sheet and the flow rates calculated accordingly. […]

Converted amounts (≈) assume the structure as drawn.

As for `NC[C@H]1O[C@H](O[C@H]2[C@H](O)[C@@H](O[C@H]3O[C@H](CO)[C@@H](O)[C@H](N)[C@H]3O)[C@H](N)C[C@@H]2N)[C@H](N)C[C@@H]1O` [tobramycin], the serum levels entry in data set [1] is “unmeasurable”. In the data set on Ps. aeruginosa, this compound gave an MIC of 4 µg/mL (≈ 8.56 µM). Further, the “effect on Ps. aeruginosa sessile (biofilm) population” value in data set [2] (four applications at MIC (4 mg L^-1), over 24 h / 48 h) is “no significant effect”. Moreover, the “effect on biofilm viability / sessile population” value in data set [2] (tobramycin at 10xMIC, four applications) is listed as “no significant effect”.

Turning to Colistin, the serum levels entry in data set [1] is “unmeasurable”.

For orientation: MIC means the lowest concentration that inhibits growth of the organism. A lower MIC goes with a more susceptible organism.
